Reference: patent US10980735B2, “Externally-applied dermal preparation composition containing extract of green tea cultivated under extreme shading” (AMOREPACIFIC CORPORATION, priority 2016, dated 2021)

Columns and labels:
[1] = tested on: collagenase (MMP-1); test: Collagenase (MMP-1) production in human fibroblasts (ELISA); format: cell-based; settings: 10 μg/ml, 24 hours, non-treated group = 100
Protocol: The collagenase production inhibitory effect of the present invention on wrinkle improvement was measured in comparison with retinoic acid.
Human fibroblasts were seeded at 5,000 cells/well in a 96-well microtiter plate filled with a Dulbecco's modified eagle's medium (DMEM) containing 2.5% fetal bovine serum and cultured in a 5% CO2 incubator at 37° C. until they grew by about 70 to 80%. The cells were treated with the extracts of Examples 1 and 2 and Comparative Examples 1 and 3 or retinoic acid at a concentration of 10 μg/ml for 24 hours, and the cell culture was collected.
The production yield of collagenase in the collected cell culture was measured using a collagenase measurement instrument commercially available (Catalog #. RPN 2610, manufactured by Amersham Pharma Inc., USA). […]
The absorbance of the yellow-colored 96-well plate was measured at 405 nm with a spectrophotometer, and the expression level of collagenase was calculated according to the following Mathematical Formula 1. At this time, the absorbance of the cell culture collected from the group not treated with the composition was considered as the control group. Expression level of collagenase (%)=Absorbance of substance-treated cell group/Absorbance of control group×100 [Mathematical Formula 1]

[2] = molecular target: T1, elastase type III (Sus scrofa, UniProt P00772); test: Inhibitory effect of elastase activity; format: biochemical; settings: EGCG 250 μM as positive control; 25° C., 15 minutes, pH 8.0
T1 construct: purchased Sigma-Aldrich, U.S.A. E0127
T1 sequence (P00772 27-266): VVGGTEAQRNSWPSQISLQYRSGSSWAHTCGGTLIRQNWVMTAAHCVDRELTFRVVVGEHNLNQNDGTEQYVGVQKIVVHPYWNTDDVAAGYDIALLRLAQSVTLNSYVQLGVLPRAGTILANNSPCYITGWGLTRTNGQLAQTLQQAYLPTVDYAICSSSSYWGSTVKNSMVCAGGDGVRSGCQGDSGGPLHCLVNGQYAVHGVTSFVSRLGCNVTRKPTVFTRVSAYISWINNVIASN
Protocol: The inhibitory effect of elastase activity of the extract of green tea cultivated by extreme light-shielding on anti-aging was measured in comparison with that of EGCG. The elastase and the substrate used herein were purchased from Sigma-Aldrich, […]0127). The inhibitory function of elastase activity was tested according to the following method. In a 96-well plate, […] (200 μL) and 50 μL of a 20 μg/mL elastase type III solution were mixed with a […] Tris-HCL buffer solution (pH 8.0). EGCG 250 μM was used as a positive control, and purified water was used as a non-treated group, which was a negative control. […] After completion of the reaction, the absorbance at the wavelength of 415 nm was measured. […] The inhibitory function of elastase was calculated according to the following Mathematical Formula 2, and the results are shown in Table 10. […] A: Absorbance at the wavelength of 415 nm in the absence of the test material and in the presence of enzyme B: Absorbance at the wavelength of 415 nm in the absence of the test material and enzyme C: Absorbance at the wavelength of 415 nm in the presence of the test material and enzyme D: Absorbance at the wavelength of 415 nm in the presence of the test material and in the absence of enzyme

Row | Structure (SMILES) | Expression level of collagenase [1] | Inhibition level of elastase activity [2]
1 | CC1=C(/C=C/C(C)=C/C=C/C(C)=C/C(=O)O)C(C)(C)CCC1 [Retinoic acid, retinoic acid] | 75% | –
2 | O=C(O[C@@H]1Cc2c(O)cc(O)cc2O[C@@H]1c1cc(O)c(O)c(O)c1)c1cc(O)c(O)c(O)c1 [EGCG] | – | 65%
